The record followed here is ChEMBL document CHEMBL1136344, “Green tea catechins as a BACE1 (beta-secretase) inhibitor” (Bioorg Med Chem Lett, 2003).

Bounds are passed on as bounds.

What is called Ki is the dissociation constant of the complex between target and ligand, obtained from inhibition or displacement. The IC50 is the point on the concentration scale where inhibition reaches its midpoint. Higher therefore signals lower potency.

T1 sequence (P56817 whole entry): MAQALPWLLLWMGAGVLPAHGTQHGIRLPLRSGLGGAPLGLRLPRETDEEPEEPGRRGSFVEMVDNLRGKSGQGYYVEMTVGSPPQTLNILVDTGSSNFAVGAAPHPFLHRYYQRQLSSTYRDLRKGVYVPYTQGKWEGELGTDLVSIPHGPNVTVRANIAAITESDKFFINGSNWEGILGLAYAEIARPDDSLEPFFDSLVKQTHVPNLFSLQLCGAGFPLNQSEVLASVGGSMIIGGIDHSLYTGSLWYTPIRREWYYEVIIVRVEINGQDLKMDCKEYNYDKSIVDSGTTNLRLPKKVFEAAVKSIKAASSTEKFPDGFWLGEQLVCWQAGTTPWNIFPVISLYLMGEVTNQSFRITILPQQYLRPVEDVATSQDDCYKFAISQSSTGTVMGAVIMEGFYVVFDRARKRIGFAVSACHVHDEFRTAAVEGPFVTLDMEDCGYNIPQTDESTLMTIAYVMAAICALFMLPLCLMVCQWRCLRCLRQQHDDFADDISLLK

One assay addresses T1, Beta-secretase 1 (Homo sapiens, UniProt P56817). Nature of the assay: Inhibitory activity against recombinant human Beta-secretase 1.
Consider `O=C(O[C@H]1Cc2c(O)cc(O)cc2O[C@H]1c1ccc(O)c(O)c1)c1cc(O)c(O)c(O)c1`, for which the Ki stood at 5.3 µM.

A further assay concerns the target T1, Beta-secretase 1. Briefly: Inhibition of human Beta-secretase 1.
As to `O=C(O[C@@H]1Cc2c(O)cc(O)cc2O[C@H]1c1ccc(O)c(O)c1)c1cc(O)c(O)c(O)c1` [(-)-CATECHINGALLATE], it took 6 µM to reach half-maximal inhibition (IC50). On the same count and under the same terms, under `O=C(O[C@@H]1O[C@@H]2COC(=O)c3cc(O)c(O)c(O)c3-c3c(cc(O)c(O)c3O)C(=O)OO[C@H]([C@H]1O)[C@@H]2O)c1cc(O)c(O)c(O)c1` stands > 160 µM; under `O=C(OC[C@@H]1O[C@H](OC(=O)c2cc(O)c(O)c(O)c2)[C@@H](OC(=O)c2cc(O)c(O)c(O)c2)[C@H](OC(=O)c2cc(O)c(O)c(O)c2)[C@H]1OC(=O)c1cc(O)c(O)c(O)c1)c1cc(O)c(O)c(O)c1`, > 160 µM. The same measure, in the same setting: the value for `Oc1cc(O)c2c(c1)O[C@H](c1cc(O)c(O)c(O)c1)[C@@H](O)C2` [GALLOCATECHIN] was 2.5 µM; that for `Oc1cc(O)c2c(c1)O[C@@H](c1cc(O)c(O)c(O)c1)[C@@H](O)C2` was 2.4 µM. Compound `O=C(O[C@H]1Cc2c(O)cc(O)cc2O[C@H]1c1ccc(O)c(O)c1)c1cc(O)c(O)c(O)c1` registered an IC50 of 4.5 µM. Compared with the last compound, the IC50 is about 1.9-fold higher.
